Values quoted from earlier work as cited in patent US6369078B1, “Solenopsin derivatives and analogues as fire ant suppressants” (priority 1999, dated 2002).

Columns and labels:
[1] = test system: fire ants; conditions: stomach insecticide combined with bait
[2] = test system: blood and tissue- and fluid-feeding parasites
[3] = as much as 6000 units over a shorter time period

ClC1(Cl)C2(Cl)C3(Cl)C4(Cl)C(Cl)(Cl)C5(Cl)C3(Cl)C1(Cl)C5(Cl)C24Cl (stereo not shown) [Mirex]
effectiveness against fire ants [1]: more than 95%

CCCCCCCCCCC[C@H]1CCC[C@H](C)N1 (relative stereo) [Solenopsin A, trans-2-methyl 6-n-undecylpiperidine]
units equivalent to 250 units of the whole body extracts ([2]; synthetic version against whole body extract): 1500 units
elimination of blood and tissue- and fluid-feeding parasites ([2]; synthetically produced, oral): complete elimination
ill effects [3]: did not cause any ill effects
